pIC50: −log10 of the molar value.
Experiments:
Type in all cases: biochemical
JAK1 = JAK1 (Homo sapiens, UniProt P23458); test: JAK 1 enzymatic inhibitory activity IC50 assay (Caliper conversion rate); details: Km ATP, 28° C., 1 hour
How it was run: (§1)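 Human JAK1 or JAK2 enzyme was preincubated with graded compound (2% DMSO) in HEPES pH 7.5/Brij-35/DTT buffer (JAK1 also with Triton), then peptide substrate, 10 mM MgCl2 and ATP at Km were added. Reactions ran 1 hour at 28° C; Caliper conversion rate gave inhibition, averaged over two tests, for IC50.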

JAK2 = JAK2 (Homo sapiens, UniProt O60674); test: JAK 2 enzymatic inhibitory activity IC50 assay (Caliper conversion rate); details: Km ATP, 28° C., 1 hour
How it was run: as §1

JAK3 = target: T1, JAK3 (Homo sapiens, UniProt P52333); test: JAK 3 enzymatic inhibitory activity IC50 assay (Caliper conversion rate); details: Km ATP, 28° C., 1 hour; read-out: JAK 3 enzymatic inhibitory activity IC50
T1 sequence (P52333 1-1124): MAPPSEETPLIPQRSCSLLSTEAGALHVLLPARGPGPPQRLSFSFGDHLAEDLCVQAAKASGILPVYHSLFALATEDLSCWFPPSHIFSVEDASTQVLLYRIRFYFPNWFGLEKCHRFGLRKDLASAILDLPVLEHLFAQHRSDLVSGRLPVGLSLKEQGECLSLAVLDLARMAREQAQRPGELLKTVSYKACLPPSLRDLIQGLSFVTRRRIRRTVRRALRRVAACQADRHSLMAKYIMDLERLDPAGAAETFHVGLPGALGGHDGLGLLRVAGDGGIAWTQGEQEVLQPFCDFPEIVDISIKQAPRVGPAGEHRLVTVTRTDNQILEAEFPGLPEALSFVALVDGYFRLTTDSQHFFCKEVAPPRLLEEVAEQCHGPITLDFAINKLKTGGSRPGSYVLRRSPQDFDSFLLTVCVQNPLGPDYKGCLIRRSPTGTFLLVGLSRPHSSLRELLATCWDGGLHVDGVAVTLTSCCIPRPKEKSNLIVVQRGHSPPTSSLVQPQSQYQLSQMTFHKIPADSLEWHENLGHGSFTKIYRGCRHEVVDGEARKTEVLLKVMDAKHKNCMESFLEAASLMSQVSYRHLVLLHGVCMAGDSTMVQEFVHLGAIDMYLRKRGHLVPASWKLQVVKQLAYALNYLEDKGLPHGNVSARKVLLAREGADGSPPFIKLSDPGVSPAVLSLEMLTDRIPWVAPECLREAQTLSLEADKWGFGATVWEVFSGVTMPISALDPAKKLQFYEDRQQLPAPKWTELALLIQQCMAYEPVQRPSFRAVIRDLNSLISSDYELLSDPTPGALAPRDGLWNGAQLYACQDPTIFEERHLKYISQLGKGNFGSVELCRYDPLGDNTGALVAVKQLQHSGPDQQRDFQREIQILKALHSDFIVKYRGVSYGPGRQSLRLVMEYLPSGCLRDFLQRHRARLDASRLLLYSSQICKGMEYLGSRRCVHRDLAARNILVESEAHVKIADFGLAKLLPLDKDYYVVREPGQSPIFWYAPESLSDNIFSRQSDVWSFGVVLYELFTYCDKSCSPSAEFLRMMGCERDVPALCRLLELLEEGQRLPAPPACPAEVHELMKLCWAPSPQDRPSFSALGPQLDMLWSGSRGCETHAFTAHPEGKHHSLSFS

Chain of JAK2 (O60674 whole entry, species assumed): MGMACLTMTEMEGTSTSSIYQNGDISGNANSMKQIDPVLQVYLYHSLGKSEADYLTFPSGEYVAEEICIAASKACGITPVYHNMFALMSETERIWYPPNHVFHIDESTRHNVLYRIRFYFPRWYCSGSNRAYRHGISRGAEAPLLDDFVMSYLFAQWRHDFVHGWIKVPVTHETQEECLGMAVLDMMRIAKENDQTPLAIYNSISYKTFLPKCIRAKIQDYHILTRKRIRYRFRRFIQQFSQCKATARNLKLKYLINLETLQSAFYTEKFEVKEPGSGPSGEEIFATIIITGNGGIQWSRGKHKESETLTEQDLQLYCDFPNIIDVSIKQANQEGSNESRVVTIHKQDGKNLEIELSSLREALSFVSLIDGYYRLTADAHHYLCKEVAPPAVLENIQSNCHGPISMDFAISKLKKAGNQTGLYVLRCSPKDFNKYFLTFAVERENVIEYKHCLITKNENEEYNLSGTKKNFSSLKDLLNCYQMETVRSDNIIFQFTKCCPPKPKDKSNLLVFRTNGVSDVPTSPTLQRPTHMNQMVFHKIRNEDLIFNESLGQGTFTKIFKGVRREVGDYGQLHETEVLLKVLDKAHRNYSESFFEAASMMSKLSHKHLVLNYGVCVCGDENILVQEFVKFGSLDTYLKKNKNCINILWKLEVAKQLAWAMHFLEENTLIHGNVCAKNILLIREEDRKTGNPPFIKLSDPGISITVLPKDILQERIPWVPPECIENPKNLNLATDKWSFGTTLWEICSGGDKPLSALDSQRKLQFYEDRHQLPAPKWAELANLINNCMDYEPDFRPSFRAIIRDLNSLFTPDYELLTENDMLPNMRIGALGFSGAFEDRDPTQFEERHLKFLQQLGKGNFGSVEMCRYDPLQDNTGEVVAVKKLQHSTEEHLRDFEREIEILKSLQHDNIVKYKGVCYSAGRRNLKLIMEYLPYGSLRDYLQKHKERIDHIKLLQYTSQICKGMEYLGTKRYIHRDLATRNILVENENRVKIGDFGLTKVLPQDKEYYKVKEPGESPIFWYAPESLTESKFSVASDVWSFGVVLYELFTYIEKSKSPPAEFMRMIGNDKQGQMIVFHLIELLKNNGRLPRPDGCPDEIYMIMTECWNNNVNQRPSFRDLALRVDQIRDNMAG
Chain of JAK1 (P23458 whole entry, species assumed): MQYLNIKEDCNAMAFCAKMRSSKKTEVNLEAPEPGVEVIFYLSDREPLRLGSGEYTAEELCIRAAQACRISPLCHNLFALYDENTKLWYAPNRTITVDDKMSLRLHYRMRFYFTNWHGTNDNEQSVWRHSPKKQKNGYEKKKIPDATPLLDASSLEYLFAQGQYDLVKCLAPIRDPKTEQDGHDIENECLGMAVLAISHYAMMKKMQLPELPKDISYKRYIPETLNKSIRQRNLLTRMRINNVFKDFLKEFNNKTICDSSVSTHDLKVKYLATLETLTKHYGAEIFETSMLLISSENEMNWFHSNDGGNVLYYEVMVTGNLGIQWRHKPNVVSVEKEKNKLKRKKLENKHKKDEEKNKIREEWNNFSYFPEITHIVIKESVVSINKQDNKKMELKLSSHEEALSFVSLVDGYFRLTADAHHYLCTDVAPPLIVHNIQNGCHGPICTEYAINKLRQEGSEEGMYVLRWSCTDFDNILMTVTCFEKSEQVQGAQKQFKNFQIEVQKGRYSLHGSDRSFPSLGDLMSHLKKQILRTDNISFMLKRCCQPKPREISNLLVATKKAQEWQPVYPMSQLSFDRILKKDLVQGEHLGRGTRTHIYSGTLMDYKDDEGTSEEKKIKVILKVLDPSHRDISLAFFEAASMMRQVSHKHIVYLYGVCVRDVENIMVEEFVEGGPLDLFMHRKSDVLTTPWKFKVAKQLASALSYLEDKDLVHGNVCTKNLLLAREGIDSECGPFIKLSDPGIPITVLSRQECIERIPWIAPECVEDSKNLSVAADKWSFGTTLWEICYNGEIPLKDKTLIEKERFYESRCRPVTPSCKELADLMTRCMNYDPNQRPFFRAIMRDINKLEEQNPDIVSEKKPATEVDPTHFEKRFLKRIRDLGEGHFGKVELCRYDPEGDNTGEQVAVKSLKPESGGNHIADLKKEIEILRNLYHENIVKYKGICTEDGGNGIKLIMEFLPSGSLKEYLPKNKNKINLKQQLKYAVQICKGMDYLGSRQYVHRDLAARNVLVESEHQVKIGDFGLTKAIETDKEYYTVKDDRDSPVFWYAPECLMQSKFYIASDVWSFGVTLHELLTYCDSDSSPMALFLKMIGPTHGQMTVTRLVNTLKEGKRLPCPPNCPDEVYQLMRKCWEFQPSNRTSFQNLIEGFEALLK

| pIC50 (JAK1) | pIC50 (JAK2) | pIC50 (JAK3) | Compound |
| --- | --- | --- | --- |
| > 7.30 | > 7.30 | 6.30 to 7.30 | CCS(=O)(=O)N1CC(CC#N)(n2cc(-c3nc(Nc4ccn(C)n4)nc4ccsc34)cn2)C1 [Compound T-25, 2-(1-(Ethylsulfonyl)-3-(4-(2-((1-methyl-1H-pyrazol-3-yl)amino)thieno[3,2-d]pyrimidin-4-yl)-1H-pyrazol-1-yl)azetidin-3-yl)acetonitrile] |
| 6.30 to 7.30 | > 7.30 | > 7.30 | CCS(=O)(=O)N1CC(CC#N)(n2cc(-c3nc(Nc4cnn(CCCN5CCN(C)CC5)c4)nc4ccsc34)cn2)C1 [Compound T-67, 2-(1-(Ethylsulfonyl)-3-(4-(2-((1-(3-(4-methylpiperazin-1-yl)propyl)-1H-pyrazol-4-yl)amino)thieno[3,2-d]pyrimidin-4-yl)-1H-pyrazol-1-yl)azetidin-3-yl)acetonitrile] |
| > 7.30 | > 7.30 | > 7.30 | C[C@@H](CO)n1cc(Nc2nc(-c3cnn(C4(CC#N)CN(S(C)(=O)=O)C4)c3)c3sccc3n2)cn1 [Compound T-85, (S)-2-(3-(4-(2-((1-(1-Hydroxypropan-2-yl)-1H-pyrazol-4-yl)amino)thieno[3,2-d]pyrimidin-4-yl)-1H-pyrazol-1-yl)-1-(methylsulfonyl)azetidin-3-yl)acetonitrile] |
| > 7.30 | > 7.30 | 6.30 to 7.30 | CCS(=O)(=O)N1CC(CC#N)(n2cc(-c3nc(Nc4cnn(C(C)=O)c4)nc4ccsc34)cn2)C1 [Compound T-52, 2-(3-(4-(2-((1-Acetyl-1H-pyrazol-4-yl)amino)thieno[3,2-d]pyrimidin-4-yl)-1H-pyrazol-1-yl)-1-(ethylsulfonyl)azetidin-3-yl)acetonitrile] |
| 6.30 to 7.30 | > 7.30 | > 7.30 | CCS(=O)(=O)N1CC(CC#N)(n2cc(-c3nc(Nc4cnn(CCC(=O)N(C)C)c4)nc4ccsc34)cn2)C1 [Compound T-36, 3-(4-((4-(1-(3-(Cyanomethyl)-1-(ethylsulfonyl)azetidin-3-yl)-1H-pyrazol-4-yl)thieno[3,2-d]pyrimidin-2-yl)amino)-1H-pyrazol-1-yl)-N,N-dimethylpropanamide] |
| 6.00 to 6.30 | 6.00 to 6.30 | < 6.00 | CCS(=O)(=O)N1CC(CC#N)(n2cc(-c3nc(Nc4ccnnc4)nc4ccsc34)cn2)C1 [Compound T-47, 2-(1-(Ethylsulfonyl)-3-(4-(2-(pyridazin-4-ylamino)thieno[3,2-d]pyrimidin-4-yl)-1H-pyrazol-1-yl)azetidin-3-yl)acetonitrile] |
| < 6.00 | 6.30 to 7.30 | < 6.00 | CCS(=O)(=O)N1CC(CC#N)(n2cc(-c3nc(Nc4cnn(C)c4)nc4cc(Cl)sc34)cn2)C1 [Compound T-68, 2-(3-(4-(6-Chloro-2-((1-methyl-1H-pyrazol-4-yl)amino)thieno[3,2-d]pyrimidin-4-yl)-1H-pyrazol-1-yl)-1-(ethylsulfonyl)azetidin-3-yl)acetonitrile] |
| < 6.00 | 6.30 to 7.30 | < 6.00 | CCS(=O)(=O)N1CC(CC#N)(n2cc(-c3nc(Nc4cn(C)cn4)nc4ccsc34)cn2)C1 [Compound T-48, 2-(1-(Ethylsulfonyl)-3-(4-(2-((1-methyl-1H-imidazol-4-yl)amino)thieno[3,2-d]pyrimidin-4-yl)-1H-pyrazol-1-yl)azetidin-3-yl)acetonitrile] |
| > 7.30 | > 7.30 | 6.30 to 7.30 | C[C@@H](CO)n1cc(Nc2nc(-c3cnn(C4(CC#N)COC4)c3)c3sccc3n2)cn1 [Compound T-83, (S)-2-(3-(4-(2-((1-(1-Hydroxypropan-2-yl)-1H-pyrazol-4-yl)amino)thieno[3,2-d]pyrimidin-4-yl)-1H-pyrazol-1-yl)oxetan-3-yl)acetonitrile] |
| 6.30 to 7.30 | > 7.30 | 6.30 to 7.30 | CCS(=O)(=O)N1CC(CC#N)(n2cc(-c3nc(Nc4cnn(C5CN(C)C5)c4)nc4ccsc34)cn2)C1 [Compound T-54, 2-(1-(Ethylsulfonyl)-3-(4-(2-((1-(1-methylazetidin-3-yl)-1H-pyrazol-4-yl)amino)thieno[3,2-d]pyrimidin-4-yl)-1H-pyrazol-1-yl)azetidin-3-yl)acetonitrile] |
| > 7.30 | > 7.30 | > 7.30 | CCS(=O)(=O)N1CC(CC#N)(n2cc(-c3nc(Nc4cnn(CCOC)c4)nc4ccsc34)cn2)C1 [Compound T-70, 2-(1-(Ethylsulfonyl)-3-(4-(2-((1-(2-methoxyethyl)-1H-pyrazol-4-yl)amino)thieno[3,2-d]pyrimidin-4-yl)-1H-pyrazol-1-yl)azetidin-3-yl)acetonitrile] |
| > 7.30 | > 7.30 | 6.30 to 7.30 | CCS(=O)(=O)N1CC(CC#N)(n2cc(-c3nc(Nc4ccc(-n5cnnn5)cc4)nc4ccsc34)cn2)C1 [Compound T-59, 2-(3-(4-(2-((4-(1H-Tetrazol-1-yl)phenyl)amino)thieno[3,2-d]pyrimidin-4-yl)-1H-pyrazol-1-yl)-1-(ethylsulfonyl)azetidin-3-yl)acetonitrile] |

— patent publication US9745320B2, “Five-and-six-membered heterocyclic compound, and preparation method, pharmaceutical composition and use thereof” (SHANGHAI CHEMEXPLORER CO., LTD., priority 2013, dated 2017)
